{"source": "patent US20200316122A1", "about": "“METHODS OF PRODUCING T CELL POPULATIONS USING P38 MAPK INHIBITORS” (The United States of America,as represented by the …, priority 2017, published 2020)", "key": {"Mouse T cells [1]": {"tested_on": "Mouse T cells", "experiment": "SEAHORSE analysis of respiratory capacity", "assay_type": "cell-based", "settings": "5 days, 0.5 μM", "description": "Mouse T cells were stimulated and expanded for 5 days in vitro in the presence of 0.5 μM p38 inhibitor. SEAHORSE analysis was performed to determine spare respiratory capacity of cells."}, "Mouse T cells [2]": {"tested_on": "Mouse T cells", "experiment": "cytokine production after brief anti-CD3/anti-CD28 stimulation", "assay_type": "cell-based", "settings": "10 days, 0.5 μM", "description": "Mouse T cells were stimulated and expanded for 10 days in vitro in the presence of 0.5 μM p38 inhibitor. Cells were briefly stimulated with anti-CD3/anti-CD28 in the presence of GOLGI-STOP protein transport inhibitor and GOLGI-PLUG protein transport inhibitor to determine the cytokine production ability of cells. As shown in FIGS. 10A-10C, IFN-gamma and IL-2 production increased following […] treatment. TNF alpha production decreased following […] treatment."}, "Mouse T cells [3]": {"tested_on": "Mouse T cells", "experiment": "cellular and mitochondrial ROS by FACS", "assay_type": "cell-based", "settings": "10 days, 0.5 μM", "description": "Mouse T cells were stimulated and expanded for 10 days in vitro in the presence of 0.5 μM p38 inhibitor. Cellular and mitochondrial ROS levels were measured using FACS analysis."}, "[4]": {"tested_on": "human healthy donor derived T cells and melanoma patient-derived T cells", "experiment": "human T cells expanded 20-25 days with p38i: CD8+CD62L+ cells", "assay_type": "cell-based", "settings": "0.5 uM p38i, vs vehicle", "description": "The numbers of human healthy donor derived T cells and melanoma patient-derived T cells were expanded for 20-25 days in presence of 0.5 uM […]. The percentage of CD8+CD62L+ cells was measured."}, "Mouse T cells [5]": {"tested_on": "Mouse T cells", "experiment": "apoptosis during expansion by Annexin", "assay_type": "cell-based", "settings": "4 days, 0.5 μM", "description": "Mouse T cells were stimulated and the numbers of cells were expanded for 4 days in vitro in the presence of 0.5 μM p38 inhibitor. The levels of cells which underwent apoptosis were measured."}, "Mouse T cells [6]": {"tested_on": "Mouse T cells", "experiment": "cell proliferation by dilution of CSFE proliferation dye", "assay_type": "cell-based", "settings": "hgp100 peptide or anti-CD3/CD28 stimulation, 4 days, 0.5 μM", "description": "Mouse T cells were stimulated using either hgp100 peptide or anti-CD3/CD28 antibodies, and the numbers of cells were expanded for 4 days in vitro in the presence of 0.5 μM p38 inhibitor. Cell proliferation was measured."}, "Human T cells": {"tested_on": "Human T cells", "experiment": "IFN-gamma production by human T cells expanded with p38i", "assay_type": "cell-based", "settings": "human T cells expanded 20-25 days", "source_text": "Human T cells were expanded for 20-25 days in the presence of […]."}, "Mouse T cells [7]": {"tested_on": "Mouse T cells", "experiment": "intracellular staining and FACS of phosphorylation of Akt and its substrates", "assay_type": "cell-based", "settings": "5 days, 0.5 μM", "description": "Mouse T cells were stimulated and the numbers of cells were expanded for 5 days in vitro in presence of 0.5 μM p38 inhibitor. Intracellular staining and FACS analysis was performed to measure phosphorylation of Akt and its substrates in T cells."}, "Mouse T cells [8]": {"tested_on": "Mouse T cells", "experiment": "RNA extraction and qPCR gene expression", "assay_type": "cell-based", "settings": "5 days, 0.5 μM, qPCR", "description": "Mouse T cells were stimulated and expanded for 5 days in vitro in the presence of 0.5 μM p38 inhibitor. RNA extraction and qPCR analysis were performed to determine differences in gene expression."}, "Mouse T cells [9]": {"tested_on": "Mouse T cells", "experiment": "metabolome analysis", "assay_type": "cell-based", "settings": "5 days, 0.5 μM, vs vehicle", "description": "Mouse T cells were stimulated and the numbers of cells were expanded for 5 days in vitro in the presence of 0.5 μM p38 inhibitor. […] FIG. 7B is a schematic illustrating glycolysis and the citric acid cycle."}, "Subcutaneous tumor": {"tested_on": "Subcutaneous tumor", "experiment": "adoptive cell transfer of Pmel-1 T cells expanded ex vivo with p38 inhibitor into tumor-bearing mice", "assay_type": "in vivo", "settings": "mice receiving Pmel-1 T cells expanded ex vivo 10 days with p38 inhibitor", "description": "Subcutaneous tumor growth was measured in mice receiving adoptive cell transfer of Pmel-1 T cells which were expanded ex vivo for 10 days in the presence of p38 inhibitor. Tumor area (FIG. 10G) and overall survival (FIG. 10H) are shown. Significance for tumor growth kinetics were calculated by Wilcoxon rank-sum test. Survival significance was assessed by a log-rank Mantel-Cox test (n=5 mice per treatment group)."}, "[10]": {"tested_on": "CD19 antigen expressing NALM6 cells", "experiment": "specific cytolysis by anti-CD19 CAR human T cells expanded with p38i", "assay_type": "cell-based", "settings": "anti-CD19 CAR T cells from 2 healthy donors, expanded 20-25 days, overnight coculture with NALM6", "description": "Human T cells from 2 healthy donors were transduced with a retrovirus encoding an anti-CD19 CAR and the numbers of cells were expanded for 20-25 days in the presence of […]. Specific cytolysis was measured. […] T cells and NALM6 cells were cocultured overnight."}, "Mouse T cells [11]": {"tested_on": "Mouse T cells", "experiment": "mouse T cells stimulated and expanded 5 days with Birb796: gamma H2AX, cell counts, CD44/CD62L", "assay_type": "cell-based", "settings": "mouse T cells expanded 5 days in vitro; with increases in the dosage of p38i", "description": "Mouse T cells were stimulated and the numbers of cells were expanded for 5 days in vitro in the presence of the p38 inhibitor Birb796. The percentages of cells with high levels of gamma H2AX, the percentages of cell counts, and the expression of CD44 and CD62L were measured. As shown in FIGS. 4C-4F, with increases in the dosage of p38 inhibitor […]), the DNA damage in cells was reduced and the cell counts and percentage of CD62L+ cells were increased."}}, "data": [{"molecule": "Cc1ccc(-n2nc(C(C)(C)C)cc2NC(=O)Nc2ccc(OCCN3CCOCC3)c3ccccc23)cc1", "note": "[BIRB 796, doramapimod]", "values": [{"measurement": "total oxygen consumption", "setting": "Mouse T cells [1]", "result": "increased"}, {"measurement": "IFN-gamma production", "setting": "Mouse T cells [2]", "result": "increased"}, {"measurement": "IL-2 production", "setting": "Mouse T cells [2]", "result": "increased"}, {"measurement": "TNF alpha production", "setting": "Mouse T cells [2]", "result": "decreased"}, {"measurement": "mitochondrial ROS", "setting": "Mouse T cells [3]", "result": "reduced"}, {"measurement": "total ROS", "setting": "Mouse T cells [3]", "result": "reduced"}, {"measurement": "percentage of CD8+CD62L+ cells", "setting": "[4]; healthy donor T cells", "result": "increased"}, {"measurement": "percentage of CD8+CD62L+ cells", "setting": "[4]; melanoma patient T cells", "result": "increased"}, {"measurement": "cell death during expansion (apoptotic cell marker Annexin)", "setting": "Mouse T cells [5]", "result": "reduced cell death"}, {"measurement": "cell proliferation (dilution of CSFE proliferation dye)", "setting": "Mouse T cells [6]", "result": "did not affect cell proliferation"}, {"measurement": "ability to produce the effector cytokine IFN-gamma", "setting": "Human T cells", "result": "enhanced ability"}, {"measurement": "phosphorylation of Akt and its substrates", "setting": "Mouse T cells [7]", "result": "preserved memory-like characteristics of T cells independent of the Akt pathway"}, {"measurement": "mRNA expression of Slc2a1", "setting": "Mouse T cells [8]", "result": "reduced"}, {"measurement": "mRNA expression of catalase", "setting": "Mouse T cells [8]", "result": "reduced"}, {"measurement": "alpha-ketoglutarate production", "setting": "Mouse T cells [9]", "result": "reduced"}, {"measurement": "glucose production", "setting": "Mouse T cells [9]", "result": "reduced"}, {"measurement": "lactate production", "setting": "Mouse T cells [9]", "result": "reduced"}, {"measurement": "production of 9-HODE/13-HODE", "setting": "Mouse T cells [9]", "result": "reduced"}, {"measurement": "production of linoleate (18:2n6)", "setting": "Mouse T cells [9]", "result": "reduced"}, {"measurement": "production of oxidized GSSG", "setting": "Mouse T cells [9]", "result": "reduced"}, {"measurement": "succinate production", "setting": "Mouse T cells [9]", "result": "reduced"}, {"measurement": "overall survival", "setting": "Subcutaneous tumor", "result": "promote survival"}, {"measurement": "tumor area", "setting": "Subcutaneous tumor", "result": "enhanced the ability of the transferred cells to reduce tumor area"}, {"measurement": "specific cytolysis", "setting": "[10]", "result": "lysed in higher numbers"}, {"measurement": "DNA damage in cells (percentage of cells with high levels of gamma H2AX)", "setting": "Mouse T cells [11]", "result": "reduced"}, {"measurement": "cell counts", "setting": "Mouse T cells [11]", "result": "increased"}, {"measurement": "percentage of CD62L+ cells", "setting": "Mouse T cells [11]", "result": "increased"}]}]}
